Source: article PMC9570995, “Design, Synthesis, and Biological Evaluation of Novel Dihydropyridine and Pyridine Analogs as Potent Human Tissue Nonspecific Alkaline Phosphatase Inhibitors with Anticancer Activity: ROS and DNA Damage-Induced Apoptosis” (Molecules, 2022)
Read-outs that look alike come from different tables or passages of the source.

Tests used:
[1] = biological target: T1, human tissue nonspecific alkaline phosphatase (h-TNAP) (Homo sapiens, UniProt P05186); test: Alkaline phosphatase inhibition assay (p-NPP substrate); type: biochemical; conditions: for inhibition at 1000 µM: compounds tested at 1 mM
T1 sequence (P05186 18-524): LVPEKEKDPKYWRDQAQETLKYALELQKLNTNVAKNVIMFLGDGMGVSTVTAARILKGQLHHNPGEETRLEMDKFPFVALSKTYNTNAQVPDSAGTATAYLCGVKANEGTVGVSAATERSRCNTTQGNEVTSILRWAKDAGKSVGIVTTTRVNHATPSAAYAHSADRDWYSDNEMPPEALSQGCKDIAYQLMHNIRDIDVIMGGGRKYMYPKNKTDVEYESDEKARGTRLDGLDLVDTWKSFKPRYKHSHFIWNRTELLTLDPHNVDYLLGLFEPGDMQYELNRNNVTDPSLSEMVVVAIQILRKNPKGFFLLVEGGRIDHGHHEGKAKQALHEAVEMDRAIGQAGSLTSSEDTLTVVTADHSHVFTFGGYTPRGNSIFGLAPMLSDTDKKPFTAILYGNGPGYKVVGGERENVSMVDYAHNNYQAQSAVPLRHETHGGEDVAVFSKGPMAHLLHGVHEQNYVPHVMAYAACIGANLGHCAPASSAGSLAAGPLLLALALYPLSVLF
Method: The newly synthesized compounds were tested against human tissue nonspecific alkaline phosphatase (h-TNAP). The compounds were initially tested against the h-TNAP enzymes at 1 mM concentration. The assay buffer (pH 9.5) constituted of 50% glycerol, followed by tris-hydrochloride (50.0 mM), MgCl2 (5.0 mM), and ZnCl2 (0.1 mM) in the solution. The enzyme substrate p-nitrophenyl phosphate (p-NPP) and all the required test compounds were diluted to the required concentration by a dilution buffer method. In a 96-well plate, the assay was started by adding 70 µL of assay buffer followed by 10.0 µL of the test compound (from 1 mM), 10.0 µL of the enzyme (0.5 µL/mL) and then subsequently incubating at 37 °C for 10 min. The reaction was initiated with the addition of 10.0 µL of substrate (5.0 mM p-NPP) into each well and incubated for an additional 30 min.
Percent inhibition was calculated by the formula:% Inhibition = [100 − (abs of test comp/abs of control) × 100]

[2] = test system: Breast Cancer (MCF-7) Cells; test: MTT cell viability assay, MCF-7; type: cell-based; conditions: for inhibition at 100 µM / IC50: Homo sapiens; for inhibition at 100 µM: MCF7, 100 µM, 24 h; for IC50: MCF7, unit given, read-out: Breast Cancer (MCF-7) Cells IC50 Values ± SEM
Text: (§1) An MTT assay was used to determine the viability of the cells under examination in the desired medium. The mitochondrial dehydrogenase enzyme of the viable cells has a key role in the conversion of the yellow water-soluble substrate 3-(4,5-dimethylthiazol-2-y1)-2,5 diphenyl tetrazolium bromide (MTT) into a dark blue formazan product that is insoluble in water. The anticancer activity of the novel synthetic derivatives (4a–4k) was investigated through an MTT assay, with small modifications following the already published protocols against cancer cell lines (HeLa and MCF-7), using cisplatin as a reference drug. The cytotoxic effect of the tested compounds at 100 µM concentration was determined and represented as the percent growth inhibition compared with the untreated control cells. The first series comprised dihydropyridines analogous from 4a–4f with various substitution patterns on the phenyl ring. […] It is presumed that the 1-naphthyl containing compound 4c was locked in a configuration that is not favorable for an interaction with amino acid residues.
(§2) The anti-proliferative activity of the synthesized compounds was determined in MCF-7 and HeLa cells by an MTT cell viability assay, as described earlier. Briefly, we seeded 1 × 10^4 cells/well in a sterile 96-well culture microtiter plate and incubated them in a 5% CO2 incubator at 37 °C for 24 h. […] After 24 h, the cells were treated with 0.2 mg/mL of MTT reagent for 4 h. We added 10% acidified SDS (sodium dodecyl sulfate) solubilizing solution in propanol (1:1) to solubilize the formazan crystals. After 30 min at 37 °C, the plate was placed on a gyratory shaker to completely dissolve the formazan crystals. The plate was placed on a microplate reader to measure the optical density at 570 nm. The IC50 values were calculated from three independent experiments as previously reported.

[3] = test system: Cervical Cancer (HeLa) Cells; test: MTT cell viability assay, HeLa; type: cell-based; conditions: for IC50: unit given, read-out: Cervical Cancer (HeLa) Cells IC50 Values ± SEM
Text: as §1, §2

[4] = Table 2, unit given in Table 1, read-out: Alkaline Phosphatase (h-TNAP) IC50
[5] = h-TNAP, assay buffer pH 9.5, Table 1 and text, read-out: IC50 + SEM
[6] = Homo sapiens, HeLa, 100 µM, 24 h
[7] = Table 2, read-out: Alkaline Phosphatase (h-TNAP) percent inhibition
[8] = percent inhibition of h-TNAP, Table 1 and text, read-out: Inhibitory Potential

| SMILES | IC50 [1, 4] [µM] | IC50 [1, 5] [µM] | IC50 ([3]; Homo sapiens, HeLa) [µM] | IC50 [2] [µM] | activity against h-TNAP in words [1] | inhibition at 1000 µM [1, 7] [%] | inhibition at 1000 µM [1, 8] [%] | inhibition at 100 µM [2] [%] | inhibition at 100 µM [3, 6] [%] | activity against MCF-7 in words [2] | activity against HeLa in words [3] | Cervical Cancer (HeLa) Cells % Inhibition (at 100 µM) ([3]; 100 µM, 24 h) [%] | IC50 [3] [µM] |
| --- | --- | --- | --- | --- | --- | --- | --- | --- | --- | --- | --- | --- | --- |
| COc1ccc(C2C(C#N)=C(N)N(Cc3ccccc3)C(N)=C2C#N)c(OC)c1OC [Compound 4e, 2,6-Diamino-1-benzyl-4-(2,3,4-trimethoxyphenyl)-1,4-dihydropyridine-3,5-dicarbonitrile] | 8.8 ± 0.53 | 8.8 ± 0.53 | 69.47 ± 0.07 | – | – | – | – | 5.73 | 60 | – | – | – | – |
| CSc1ccc(C2C(C#N)=C(N)N(Cc3ccccc3)C(N)=C2C#N)cc1 [Compound 4a, 2,6-Diamino-1-benzyl-4-(4-(methylthio)phenyl)-1,4-dihydropyridine-3,5-dicarbonitrile] | – | – | – | – | least activity | 21.1 | 20.9 | 37.9 | 7.71 | least potency | least potency | – | – |
| N#CC1=C(N)N(Cc2ccccc2)C(N)=C(C#N)C1c1cccc2ccccc12 [Compound 4c, 2,6-Diamino-1-benzyl-4-(naphthalen-1-yl)-1,4-dihydropyridine-3,5-dicarbonitrile] | – | – | – | – | – | 26.2 | 26.2 | 23.1 | 21.3 | inactive | inactive | – | – |
| COc1c(O)cccc1C1C(C#N)=C(N)N(Cc2ccccc2)C(N)=C1C#N [Compound 4f, 2,6-Diamino-1-benzyl-4-(3-hydroxy-2-methoxyphenyl)-1,4-dihydropyridine-3,5-dicarbonitrile] | 2.25 ± 0.16 | 2.25 ± 0.16 | 57 ± 7.1 | 77 ± 8.3 | – | – | – | 61.7 | 77.3 | – | – | – | – |
| CC(C)c1ccc(C2C(C#N)=C(N)N(Cc3ccccc3)C(N)=C2C#N)cc1 [Compound 4b, 2,6-Diamino-1-benzyl-4-(4-isopropylphenyl)-1,4-dihydropyridine-3,5-dicarbonitrile] | – | – | – | – | least activity | 28.3 | 28.3 | 41.8 | 11 | least potency | least potency | – | – |
| N.N.[Cl][Pt][Cl] [Cisplatin, reference compound] | – | – | – | – | – | – | – | – | – | – | – | 98.32 | 11.3 ± 0.78 |
| COc1cccc2c1C(=O)c1c(O)c3c(c(O)c1C2=O)C[C@@](O)(C(=O)CO)C[C@@H]3O[C@H]1C[C@H](N)[C@H](O)[C@H](C)O1 [Doxorubicin, reference compound] | – | – | – | 2.81 ± 0.39 | – | – | – | 98.9 | – | – | – | – | – |

More lines, main results first:

| IC50 [1, 4] [µM] | IC50 [1, 5] [µM] | IC50 ([3]; Homo sapiens, HeLa) [µM] | IC50 [2] [µM] | activity against h-TNAP in words [1] | inhibition at 1000 µM [1, 7] [%] | inhibition at 1000 µM [1, 8] [%] | SMILES | inhibition at 100 µM [2] [%] | inhibition at 100 µM [3, 6] [%] | activity against MCF-7 in words [2] | activity against HeLa in words [3] | Cervical Cancer (HeLa) Cells % Inhibition (at 100 µM) ([3]; 100 µM, 24 h) [%] | IC50 [3] [µM] |
| --- | --- | --- | --- | --- | --- | --- | --- | --- | --- | --- | --- | --- | --- |
| 1.22 ± 0.12 | 1.22 ± 0.12 | 57 ± 1.5 | 54 ± 1.7 | – | – | – | CCOc1ccc(-c2c(C#N)c(N)nc(NCCCn3ccnc3)c2C#N)cc1 [Compound 4j, 2-((3-(1H-Imidazol-1-yl)propyl)amino)-6-amino-4-(4-ethoxyphenyl)pyridine-3,5-dicarbonitrile] | 72.4 | 77.8 | – | – | – | – |
| 0.49 ± 0.025 | 0.49 ± 0.025 | 63 ± 4.1 | 98 ± 5.7 | – | – | – | CCOc1ccc(-c2c(C#N)c(N)nc(NCCc3ccc(S(N)(=O)=O)cc3)c2C#N)cc1 [Compound 4g, 4-(2-((6-Amino-3,5-dicyano-4-(4-ethoxyphenyl)pyridine-2yl)amino)ethyl)benzene sulfonamide] | 53.3 | 67.1 | – | – | – | – |
| – | – | 66 ± 1.97 | – | comparatively inactive | 36.5 | 36.5 | CC(C)c1ccc(-c2c(C#N)c(N)nc(NCCCn3ccnc3)c2C#N)cc1 [Compound 4k, 2-((3-(1H-Imidazol-1-yl)propyl)amino)-6-amino-4-(4-(isopropyle)phenyl)pyridine-3,5-dicarbonitrile] | 40.1 | 63.8 | – | – | – | – |
| – | – | – | – | least inhibitory activity | 31.7 | 31.7 | CC(C)c1ccc(-c2c(C#N)c(N)nc(NCCc3ccc(S(N)(=O)=O)cc3)c2C#N)cc1 [Compound 4i] | 34.6 | 39.3 | – | – | – | – |
| – | – | – | 109.9 ± 1.07 | least inhibitory activity | 37.6 | 37.6 | CSc1ccc(-c2c(C#N)c(N)nc(NCCc3ccc(S(N)(=O)=O)cc3)c2C#N)cc1 [Compound 4h, 4-(2-((6-Amino-3,5-dicyano-4-(4-(methylthio)phenyl)pyridin-2-yl)amino)ethyl)benzene sulfonamide] | 57.2 | 38.4 | – | – | – | – |
